Data on eight compounds can be found in ChEMBL document CHEMBL3232722, “Synthesis and kinase inhibitory activity of new sulfonamide derivatives of pyrazolo[4,3-e][1,2,4]triazines” (Eur J Med Chem, 2014).

Calls of active or inactive are those of the source. The rule behind the calls is not given here. A value given as a limit tells only on which side of the number the result lay.

Test [1] has as its system MCF7. The test can be described thus: In vitro antiproliferative activity against human MCF7 cells assessed as decrease cell viability after 24 hrs by MTT assay. The conditions noted are these: for IC50: MCF7, 24 h. The class given is functional, cell-based. (In general: Formazan colour is commonly taken as a measure of viable cells.)
Test [2] deals with MDA-MB-231. Kind of test: In vitro antiproliferative activity against human MDA-MB-231 cells assessed as decrease in cell vaibility after 24 hrs by MTT assay. In kind it is functional, cell-based. Particulars: for IC50: MDA-MB-231, 24 h.
In test [3] the test system is K562. Kind of test: In vitro antiproliferative activity against human K562 cells assessed as decrease in cell viability after 24 hrs by MTT assay. The class given is functional, cell-based. The conditions noted are these: for IC50: K562, 24 h.
A short description of test [4]: (§1) In vitro antiproliferative activity against human BV173 cells assessed as decrease in cell viability after 24 hrs by MTT assay. The class given is functional, cell-based. The conditions noted are these: BV-173, 24 h.
Test [5] has as its system BV-173. The test is described as §1. In kind it is functional, cell-based.
In test [6] the test system is HL-60. The test can be described thus: In vitro antiproliferative activity against human HL60 cells assessed as decrease in cell viability after 24 hrs by MTT assay. Particulars: for IC50: HL-60, 24 h. In kind it is functional, cell-based.
In test [7] the test system is CCRF-CEM. The test can be described thus: In vitro antiproliferative activity against human CCRF-CEM cells assessed as decrease in cell viability after 24 hrs by MTT assay. The class given is functional, cell-based.
Test [8] relates to MCF7. The test can be described thus: Cytostatic activity against human MCF7 cells assessed as decrease in [3H]thymidine incorporation into DNA after 24 hrs by liquid scintillation counting analysis. The class given is functional, cell-based.
For test [9], the system named is MDA-MB-231. Kind of test: Cytostatic activity against human MDA-MB-231 cells assessed as decrease in [3H]thymidine incorporation into DNA after 24 hrs by liquid scintillation counting analysis. The class given is functional, cell-based. Background: Uptake of a labelled nucleoside into DNA is a usual measure of proliferation.
In test [10] the target is T1, Tyrosine-protein kinase ABL1 (Homo sapiens, UniProt P00519). The test can be described thus: Inhibition of recombinant Abl kinase (unknown origin) expressed in Sf9 cells using GGEAIYAAPFKK as substrate in presence of [gamma33P]ATP.
For test [11], the target named is T1, Tyrosine-protein kinase ABL1. Kind of test: Inhibition of recombinant Abl kinase (unknown origin) expressed in Sf9 cells assessed as residual enzyme activity using GGEAIYAAPFKK as substrate at 10 uM in presence of [gamma33P]ATP.
The target is the same in test [12]. The test can be described thus: Inhibition of recombinant Abl kinase (unknown origin) expressed in Sf9 cells assessed as residual enzyme activity using GGEAIYAAPFKK as substrate at 25 uM in presence of [gamma33P]ATP.
Test [13] addresses Cyclin-dependent kinase 2/cyclin E1 (Homo sapiens, UniProt P24941). Kind of test: Inhibition of CDK2/cyclin E (unknown origin) expressed in Sf9 cells using histone H1 as substrate in presence of [gamma33P]ATP.
For test [14], the target named is Casein kinase II subunit alpha (Homo sapiens, UniProt P68400). The test can be described thus: Inhibition of CK2alpha1 (unknown origin) using casein as substrate in presence of [gamma33P]ATP.
The test system of test [15] is K562. The test can be described thus: Induction of apoptosis in human K562 cells assessed as increase in sub-diploid cell population at 10 to 100 uM after 24 hrs by propidium iodide staining based flow cytometry. In kind it is functional. (Flow cytometry measures light scatter and fluorescence of single cells or particles in a stream.)
Test [16] concerns the target T2, Bcr/Abl fusion protein (Homo sapiens) (UniProt P00519+P11274). Kind of test: Inhibition of Bcr/Abl kinase in human K562 cells assessed as decrease in STAT5 phosphorylation at Tyr694 after 1 hr by immunoblot analysis. The class given is cell-based.
The target of test [17] is T1, Tyrosine-protein kinase ABL1. Kind of test: Inhibition of Abl kinase tyrosine phosphorylation in human K562 cells at 1 to 100 uM after 1 hr by immunoblot analysis. In kind it is cell-based.
Test [18] has as its target T2, Bcr/Abl fusion protein (Homo sapiens). The test can be described thus: Inhibition of Bcr/Abl kinase tyrosine phosphorylation in human K562 cells at 1 to 100 uM after 1 hr by immunoblot analysis. In kind it is cell-based.
The subject of test [19] is K562. Kind of test: Inhibition of tyrosine phosphorylation of protein with molecular weight between 40 and 60 kDa in human K562 cells at 1 to 100 uM after 1 hr by immunoblot analysis. The class given is functional, cell-based.
The target of test [20] is T1, Tyrosine-protein kinase ABL1. Kind of test: Inhibition of recombinant Abl kinase (unknown origin) expressed in Sf9 cells assessed as residual enzyme activity using GGEAIYAAPFKK as substrate at 50 uM in presence of [gamma33P]ATP.
Test [21] deals with K562. Particulars: Homo sapiens, 10 uM.
Description: Inhibition of tyrosine phosphorylation of protein with molecular weight between 40 and 60 kDa in human K562 cells at 10 uM after 1 hr by immunoblot analysis

Casein kinase II subunit alpha, sequence (P68400 whole entry): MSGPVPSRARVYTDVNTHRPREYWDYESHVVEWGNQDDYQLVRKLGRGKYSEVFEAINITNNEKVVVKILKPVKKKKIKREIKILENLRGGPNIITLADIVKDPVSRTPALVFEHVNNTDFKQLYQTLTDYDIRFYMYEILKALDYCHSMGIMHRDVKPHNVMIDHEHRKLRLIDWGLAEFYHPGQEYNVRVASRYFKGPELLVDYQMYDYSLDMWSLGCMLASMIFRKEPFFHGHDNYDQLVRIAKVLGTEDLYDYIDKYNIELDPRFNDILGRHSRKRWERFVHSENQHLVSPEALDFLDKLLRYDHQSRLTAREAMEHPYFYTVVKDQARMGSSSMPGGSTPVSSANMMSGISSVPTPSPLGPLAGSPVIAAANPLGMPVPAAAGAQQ
T1 sequence (P00519 whole entry): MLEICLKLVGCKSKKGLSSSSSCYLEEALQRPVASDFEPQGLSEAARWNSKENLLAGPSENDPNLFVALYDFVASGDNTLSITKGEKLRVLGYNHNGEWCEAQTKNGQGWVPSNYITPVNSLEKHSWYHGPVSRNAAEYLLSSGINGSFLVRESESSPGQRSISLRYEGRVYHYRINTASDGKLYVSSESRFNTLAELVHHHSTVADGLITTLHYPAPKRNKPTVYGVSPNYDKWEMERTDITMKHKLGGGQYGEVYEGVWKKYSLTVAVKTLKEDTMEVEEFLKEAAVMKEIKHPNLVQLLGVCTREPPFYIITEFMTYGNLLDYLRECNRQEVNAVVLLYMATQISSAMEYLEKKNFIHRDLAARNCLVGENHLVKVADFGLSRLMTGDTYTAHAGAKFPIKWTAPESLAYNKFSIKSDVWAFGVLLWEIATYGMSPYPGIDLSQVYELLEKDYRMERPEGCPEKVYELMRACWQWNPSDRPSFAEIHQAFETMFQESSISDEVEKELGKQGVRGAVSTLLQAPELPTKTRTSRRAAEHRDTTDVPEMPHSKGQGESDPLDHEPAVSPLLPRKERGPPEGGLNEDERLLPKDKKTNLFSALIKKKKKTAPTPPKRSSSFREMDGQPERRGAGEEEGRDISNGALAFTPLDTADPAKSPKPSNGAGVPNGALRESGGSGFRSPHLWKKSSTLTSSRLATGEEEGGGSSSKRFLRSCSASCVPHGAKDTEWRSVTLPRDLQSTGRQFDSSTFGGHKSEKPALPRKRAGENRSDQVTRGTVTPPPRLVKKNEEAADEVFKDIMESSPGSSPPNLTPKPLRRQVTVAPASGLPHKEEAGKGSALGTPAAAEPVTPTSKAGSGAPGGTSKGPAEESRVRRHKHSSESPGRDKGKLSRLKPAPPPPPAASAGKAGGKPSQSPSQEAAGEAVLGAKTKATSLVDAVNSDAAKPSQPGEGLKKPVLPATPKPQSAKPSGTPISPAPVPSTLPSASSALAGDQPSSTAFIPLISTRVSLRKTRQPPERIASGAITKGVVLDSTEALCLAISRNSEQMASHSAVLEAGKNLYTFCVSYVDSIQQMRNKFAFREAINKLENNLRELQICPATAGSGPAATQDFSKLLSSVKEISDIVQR
T2 sequence (P00519 whole entry, looked up, the tested form may be a part): as the sequence (P00519 whole entry) above
T2 sequence (P11274 whole entry, looked up, the tested form may be a part): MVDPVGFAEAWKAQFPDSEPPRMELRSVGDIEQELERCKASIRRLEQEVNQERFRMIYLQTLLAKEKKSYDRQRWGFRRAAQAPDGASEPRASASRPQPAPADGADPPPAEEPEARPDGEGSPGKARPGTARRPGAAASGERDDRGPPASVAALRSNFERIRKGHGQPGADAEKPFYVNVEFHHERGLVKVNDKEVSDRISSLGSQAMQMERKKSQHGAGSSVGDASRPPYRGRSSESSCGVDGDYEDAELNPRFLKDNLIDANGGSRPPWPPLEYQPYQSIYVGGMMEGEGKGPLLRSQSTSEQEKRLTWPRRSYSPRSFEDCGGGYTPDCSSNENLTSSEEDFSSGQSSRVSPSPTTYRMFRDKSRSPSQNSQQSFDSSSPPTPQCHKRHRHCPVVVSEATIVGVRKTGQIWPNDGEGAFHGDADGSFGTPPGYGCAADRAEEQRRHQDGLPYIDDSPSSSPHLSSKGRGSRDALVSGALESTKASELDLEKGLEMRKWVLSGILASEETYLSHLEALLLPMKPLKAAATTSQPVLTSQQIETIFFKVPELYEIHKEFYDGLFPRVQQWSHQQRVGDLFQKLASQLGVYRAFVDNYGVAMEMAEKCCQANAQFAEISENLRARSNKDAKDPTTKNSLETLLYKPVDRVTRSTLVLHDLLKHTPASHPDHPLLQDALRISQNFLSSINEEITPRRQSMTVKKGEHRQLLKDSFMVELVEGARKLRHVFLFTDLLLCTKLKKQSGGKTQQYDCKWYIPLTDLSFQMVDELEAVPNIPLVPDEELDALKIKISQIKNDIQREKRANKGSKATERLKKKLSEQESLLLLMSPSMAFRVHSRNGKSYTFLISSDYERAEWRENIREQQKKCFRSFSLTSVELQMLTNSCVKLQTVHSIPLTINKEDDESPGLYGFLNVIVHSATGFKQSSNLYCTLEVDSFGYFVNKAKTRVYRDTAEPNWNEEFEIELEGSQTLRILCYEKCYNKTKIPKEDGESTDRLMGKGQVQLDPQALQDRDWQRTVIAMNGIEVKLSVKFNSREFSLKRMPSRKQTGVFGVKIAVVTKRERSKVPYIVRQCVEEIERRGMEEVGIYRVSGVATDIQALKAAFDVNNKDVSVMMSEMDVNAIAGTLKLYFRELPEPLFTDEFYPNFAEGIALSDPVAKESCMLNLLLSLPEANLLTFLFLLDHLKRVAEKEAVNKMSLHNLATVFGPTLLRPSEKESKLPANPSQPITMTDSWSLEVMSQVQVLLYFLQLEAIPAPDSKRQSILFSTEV

Take `Cc1nn(C)c2nnc(Nc3ccc(S(=O)(=O)N4CCCCC4)cc3)nc12`: the inhibition result in test [1], in [2], in test [3], in test [5], in test [6] and in test [7] was “Dose-dependent effect” each time. Further, the inhibition result in [8] and in [9] was “Dose-dependent effect” throughout. Moreover, the IC50 (commonly the point on the concentration scale where inhibition reaches its midpoint) was 200 µM in test [1]; 140 µM in [2]; 98 µM in [3]; 36 µM in [4]; 24 µM in [6] (read-out: IC50); 30 µM in [7]. Also, the IC50 was 150 µM in test [8]; 135 µM in test [9]; greater than 25 µM in [10]; greater than 25 µM in test [13]; greater than 25 µM in [14]. In addition, the Activity in test [11] turned out to be 100%; in [12], 98%.
`Cc1nn(C)c2nnc(Nc3ccc(S(=O)(=O)NCCN)cc3)nc12`: the inhibition entry in test [1], in test [2], in test [3], in test [5], in test [6] and in test [7] was “Dose-dependent effect” each time. Further, the inhibition entry in test [8], in test [9] and in test [16] was “Dose-dependent effect” in each case. In addition, the 50% inhibitory concentration (IC50) in [1] was 126 µM; in test [2], 120 µM; in test [3] it was 77 µM; in test [4], 39 µM; in [6] (read-out: IC50), 42 µM; in test [7], 56 µM. Also, the 50% inhibitory concentration (IC50) was 85 µM in test [8]; 90 µM in test [9]; 15 µM in test [10]; 34.9 µM in test [13]; greater than 50 µM in [14]. The outcome in test [15] was inactive. Besides, the inhibition entry in test [17], in [18] and in [19] was “inactive” each time.
Turning to `Cc1nn(C)c2nnc(Nc3ccc(S(=O)(=O)NCC(O)CO)cc3)nc12` (centres undefined), the inhibition result in test [1], in test [2], in test [3], in [5], in test [6] and in test [7] was “Dose-dependent effect” throughout. Besides, the inhibition entry in [8] and in test [9] was “Dose-dependent effect” each time. Further, the 50% inhibitory concentration (IC50) in test [1] came out at 200 µM; in test [2], 140 µM; in test [3], 101 µM; in test [4], 42 µM; in [6] (read-out: IC50), 44 µM; in [7], 57 µM. The IC50 was 130 µM in test [8]; 130 µM in test [9]; 34 µM in test [10]; greater than 50 µM in [13]; greater than 50 µM in test [14]. In addition, the Activity was determined as 81% in test [11], 56% in [12] and 45% in test [20].
As for `Cc1nn(C)c2nnc(Nc3ccc(S(=O)(=O)N4CCCC4)cc3)nc12`, the inhibition result in test [1], in test [2], in test [3], in test [5], in [6] and in test [7] was “Dose-dependent effect” each time. Also, the inhibition entry in [8] and in test [9] was “Dose-dependent effect” in each case. Besides, the IC50 in test [1] is greater than 200 µM; in test [2] it was greater than 200 µM; in test [3], 102 µM; in test [4], 47 µM; in test [6] (read-out: IC50) it was 56 µM; in [7], 30 µM. The IC50 was greater than 200 µM in test [8]; greater than 200 µM in [9]; greater than 50 µM in [10]; greater than 50 µM in test [13]; greater than 50 µM in test [14]. For the same compound, the results for the Activity in test [11], in [12] and in [20] were 100%, 100% and 90%, respectively.
As to `Cc1nn(C)c2nnc(Nc3ccc(S(N)(=O)=O)cc3)nc12`, the inhibition entry in test [1], in [2], in test [3], in test [5], in [6] and in test [7] was “Dose-dependent effect” each time. In addition, the inhibition entry in test [8] and in test [9] was “Dose-dependent effect” throughout. The IC50 is greater than 200 µM in test [1]; greater than 200 µM in test [2]; 106 µM in test [3]; 45 µM in test [4]; 58 µM in test [6] (read-out: IC50); 50 µM in [7]. Besides, the IC50 was greater than 200 µM in [8]; greater than 200 µM in [9]; 33 µM in [10]; greater than 50 µM in test [13]; greater than 50 µM in [14]. Besides, the results for the Activity in [11], in [12] and in test [20] were 95%, 63% and 33%, respectively.
Turning to `Cc1nn(C)c2nnc(Nc3ccc(S(=O)(=O)N4CCOCC4)cc3)nc12`, the inhibition result in [1], in test [2], in test [3], in [5], in [6] and in test [7] was “Dose-dependent effect” throughout. Also, the inhibition entry in test [8] and in test [9] was “Dose-dependent effect” throughout. Also, the IC50 is greater than 200 µM in test [1]; greater than 200 µM in test [2]; 90 µM in [3]; 58 µM in test [4]; 39 µM in test [6] (read-out: IC50); 69 µM in test [7]. For the same compound, the IC50 in [8] is greater than 200 µM; in [9], greater than 200 µM; in [10], greater than 25 µM; in [13], greater than 25 µM; in test [14], greater than 25 µM. Moreover, the Activity worked out at 88% in [11] and 80% in [12].
Turning to `Cc1ccc(NC(=O)c2ccc(CN3CCN(C)CC3)cc2)cc1Nc1nccc(-c2cccnc2)n1` [IMATINIB], the IC50 is 13 µM in test [3], 20 µM in [4], 55 µM in [6] and 45 µM in test [7]. Moreover, the inhibition result in test [21] was “Active”.
Consider `Cc1nn(C)c2nnc(Nc3ccc(S(=O)(=O)N4CCN(C)CC4)cc3)nc12`, for which the inhibition entry in test [1], in test [2], in test [3], in test [5], in [6] and in test [7] was “Dose-dependent effect” in each case. Moreover, the inhibition entry in test [8] and in test [9] was “Dose-dependent effect” throughout. Further, the 50% inhibitory concentration (IC50) in [1] amounted to 102 µM; in [2] it was 99 µM; in test [3], 66 µM; in [4], 40 µM; in test [6] (read-out: IC50), 49 µM; in test [7], 36 µM. The IC50 in test [8] was 87 µM; in test [9], 80 µM; in test [10], greater than 50 µM; in [13], greater than 50 µM; in [14], greater than 50 µM. The results for the Activity in test [11], in test [12] and in [20] were 60%, 55% and 51%, respectively.
